Here are results for three compounds from patent US20100256196A1, “Biomarkers for Atherosclerosis” (IKFE, priority 2008, published 2010).

Series [1] deals with NFκB and NFκB-modulated cytokines in circulating peripheral mononuclear cells. Briefly: mRNA expression in circulating mononuclear cells (CD14+ monocytes/macrophages), calibrator-normalized relative quantification by LightCycler PCR. Conditions: normalized ratio, reference gene β-actin, mean ± SD. The series is classed as in vivo, human. An excerpt: Blood for the measurement of fasting glucose, MMP-9, and hsCRP was taken at baseline and after 3, 7, 10, 14 and 28 days of study treatment. Blood for assessment of the mRNA expression profile of circulating mononuclear cells as well as for assessment of circulating plasma levels of HbAlc, Insulin, Intact Proinsulin, Adiponectin, IL-6, sCD40L, P-Selectin, MIF, Angiotensin II, complement factor 3, and blood lipids were obtained at baseline and at the end of the study. Insulin resistance was calculated using the HOMAIR score at baseline and study endpoint as published previously (29, 30).
Isolation of MNC from whole blood was performed as a density gradient centrifugation by means of the ACCUSPIN System-HISTOPAQUE-1077 (Sigma-Aldrich Chemie GmbH, Steinheim, Germany). The isolation of macrophages and monocytes from the collected cells was performed by MACS magnetic cell sorting with CD14 MicroBeads (human) (Miltenyi Biotec GmbH, Bergisch Gladbach, Germany). The CD14 positive (CD14+) cells (macrophages and monocytes) were first magnetically labeled with MACS CD14 MicroBeads. The cell suspension was loaded on a MS MACS Column which was placed in the magnetic field of a MiniMACS Separator. The magnetically labeled CD14+ cells were retained in the column and separated from the unlabelled cell fraction.
The mRNA isolation from macrophages and monocytes was performed with the High Pure RNA Isolation Kit (Roche Applied Science, Penzberg, Germany). The cells were first lysed and the intact and undegraded RNA was adsorbed to a glass fibre fleece. Simultaneously, RNAses were inactivated. Furthermore, residues of contaminating DNA were digested and the RNA was purified from salts, proteins and other impurities. Purity of the isolated mRNA was assessed by real-time PCR (LightCycler II, Roche Diagnostics, Mannheim, Germany). The transcription of mRNA in cDNA was performed on a thermocycler (Biozym Diagnostik GmbH, Oldendorf, Germany) according to a standardized protocol (‘Transcriptor First Strand cDNA Synthesis Kit’, Instruction Manual Version 1, 2004, Roche Applied Science, Penzberg, Germany).
Sequence specific primers were designed by TIB MOLBIOL (Syntheselabor GmbH, Berlin, Germany) to amplify the gene sequences of Rel-A, p105, IκB-α, IκB-β and IL-6. The primers for TNF-α were taken from “Rapid Cycle Real-Time PCR Methods and Applications Quantification” (31). The primers for MIF and MMP-9 were reproduced from previous reports (12, 32). A list of the primers used for the quantification experiments, the primer-specific PCR protocols and the specific amplification product melting points are provided in Table 1. An additional agarose gel electrophoresis assay was performed to verify the correct length of the amplification products.
The RNA quantification in this study, was performed by means of a calibrator-normalized relative quantification method based on the LightCycler II system (Roche Diagnostics, Mannheim, Germany), where quantification of a target and a reference gene is a function of PCR efficiency and the sample crossing point. The sample crossing point is the amplification cycle during an amplification assay, at which the fluorescence of a probe rises above background fluorescence. This occurs usually at the second derivative maximum (fastest change in fluorescence). […] In these experiments, β-actin is the most abundant protein in eukaryotic cells with constant expression (33). […] The principle of this method is the determination of the relative amount of the target gene and the reference gene for each sample and for the calibrator. […] All experiments were performed in triple replications.
Data are presented as arithmetic mean±standard deviation (SD) for continuous variables or mean±SEM for percent changes from baseline and as the number/proportion of patients for categorical variables.

Series [2] relates to patients with type 2 diabetes and established atherosclerosis. Briefly: Clinical and biochemical observation parameters, double-blind placebo-controlled study, 4 weeks add-on treatment. The note with it: mean ± SD; for Glucose: fasting; for HOMAIR: insulin resistance score; for IL-6 / MIF / MMP-9: plasma protein; for Adiponectin / Angiotensin II / Complement factor C3 / Insulin / Intact proinsulin / P-seclectin / sCD40L: plasma. Format: in vivo, human.

For series [3] the following is noted: in vivo; cited from earlier work.
A further series deals with MIF. The note with it: six week treatment, eight non-diabetic patients with obesity; cited from earlier work.
The mark [4] stands for this setting: endpoint, after 4 weeks of pioglitazone.
[5] abbreviates: endpoint, after 4 weeks 45 mg pioglitazone add-on.

The structures appear in SMILES notation.

Take `CCc1ccc(CCOc2ccc(CC3SC(=O)NC3=O)cc2)nc1` (stereo not drawn) [pioglitazone]: in series [1] (setting [4]), the “IL-6 mRNA expression” value stood at 1.05 ± 0.46, the “IκB-β mRNA expression” value was 3.30 ± 2.41, the “MIF mRNA expression” value was found to be 0.84 ± 0.31 and the “MMP-9 mRNA expression” value worked out at 1.48 ± 1.18. In addition, in series [1] (setting [4]), the “RelA (p65 subunit of NF-κB) mRNA expression” value amounted to 0.95 ± 0.44, the “TNFα mRNA expression” value is given as 1.70 ± 0.93 and the “p105 (p50 subunit of NF-κB) mRNA expression” value is recorded as 1.33 ± 0.46. For the same compound, in series [1] (pioglitazone arm, baseline), the “IL-6 mRNA expression” value was determined as 1.13 ± 0.52, the “IκB-β mRNA expression” value amounted to 3.17 ± 2.05, the “MIF mRNA expression” value is reported as 0.98 ± 0.40 and the “MMP-9 mRNA expression” value is on record as 2.29 ± 2.68. In series [1] (pioglitazone arm, baseline), the “RelA (p65 subunit of NF-κB) mRNA expression” value is reported as 1.20 ± 0.74, the “TNFα mRNA expression” value is recorded as 1.88 ± 1.20 and the “p105 (p50 subunit of NF-κB) mRNA expression” value was determined as 1.63 ± 0.80. Further, in series [2] (setting [5]), the BMI stood at 31.4 ± 4.5 kg/m^2, the Diastolic blood pressure is reported as 80 ± 11 mmHg, the HDL cholesterol was determined as 1.26 ± 0.26 mmol/L and the HbA1c stood at 6.8 ± 0.9%. In addition, in series [2] (setting [5]), the LDL cholesterol was determined as 2.52 ± 0.76 mmol/L, the Systolic blood pressure is on record as 137 ± 18 mmHg, the “Total Cholesterol” value is 4.78 ± 1.09 mmol/L and the hsCRP was 1.9 ± 1.7 mg/L. In series [2] (setting [5]), this compound returned a sICAM of 319 ± 86 µg/L, a sVCAM of 943 ± 452 µg/L, a Glucose of 122 ± 35 mg/dL and an HOMAIR of 3.9 ± 2.6. In series [2] (setting [5]), this compound came in with an IL-6 of 3.2 ± 0.1 ng/L, an MIF of 9.6 ± 3.5 µg/L, an MMP-9 of 284 ± 101 µg/L and an Adiponectin of 22.1 ± 9.1 µg/mL. In series [2] (setting [5]), the “Angiotensin II” value was determined as 8.0 ± 8.8 µg/L, the “Complement factor C3” value turned out to be 1.5 ± 0.3 g/L, the Insulin worked out at 12 ± 7 μU/ml and the Intact proinsulin was 19 ± 17 pmol/L. In addition, in series [2] (setting [5]), the P-seclectin came to 93 ± 22 µg/L and the sCD40L worked out at 1.1 ± 1.1 µg/L. In series [2] (pioglitazone arm, baseline), this compound came in with a Glucose of 142 ± 40 mg/dL, an HOMAIR of 5.9 ± 4.4, a BMI of 31.0 ± 4.3 kg/m^2 and a Diastolic blood pressure of 83 ± 11 mmHg. For the same compound, in series [2] (pioglitazone arm, baseline), the HDL cholesterol came to 1.18 ± 0.24 mmol/L, the HbA1c amounted to 7.0 ± 1.1%, the LDL cholesterol was 2.46 ± 0.80 mmol/L and the Systolic blood pressure is listed as 144 ± 15 mmHg. In series [2] (pioglitazone arm, baseline), the “Total Cholesterol” value came to 4.63 ± 0.99 mmol/L, the hsCRP came to 2.9 ± 1.7 mg/L, the sICAM is 326 ± 90 µg/L and the sVCAM turned out to be 915 ± 409 µg/L. For the same compound, in series [2] (pioglitazone arm, baseline), the IL-6 is 3.3 ± 0.5 ng/L, the MIF amounted to 10.4 ± 5.3 µg/L, the MMP-9 worked out at 344 ± 118 µg/L and the Adiponectin worked out at 8.7 ± 3.5 µg/mL. Moreover, in series [2] (pioglitazone arm, baseline), the “Angiotensin II” value amounted to 10.2 ± 9.2 µg/L, the “Complement factor C3” value was 1.6 ± 0.4 g/L, the Insulin is 17 ± 10 μU/ml and the Intact proinsulin was 30 ± 37 pmol/L. In series [2] (pioglitazone arm, baseline), the P-seclectin turned out to be 95 ± 20 µg/L and the sCD40L was 1.6 ± 1.8 µg/L.
On to `Cc1c(C)c2c(c(C)c1O)CCC(C)(COc1ccc(CC3SC(=O)NC3=O)cc1)O2` (stereo not drawn) [troglitazone], for which the “Reason for being taken from the market” value in series [3] is reported as “hepatotoxiciy”.
On to `CN(C)C(=N)N=C(N)N` [metformin], for which the “Plasma concentration of MIF and transcription of MIF mRNA in mononuclear cells” value in the series on MIF is recorded as “reduced”.
